Target: T1, 1-phosphatidylinositol 3-phosphate 5-kinase [S696N,L932S,Q995L,T998S,S1033A,Q1183K] (Homo sapiens, UniProt Q9Y2I7, L932S/Q1183K/Q995L/S1033A/S696N/T998S)
T1 construct: gene PIKFYVE
Assay: PIKfyve Biochemical Assay
Method: The biochemical PIKfyve inhibition assays were run by Carna Biosciences according to proprietary methodology based on the Promega ADP-Glo™ Kinase assay. […] GST-PIKFYVE was purified by using glutathione sepharose chromatography and used in an ADP-Glo™ Kinase assay (Promega). Reactions were set up by adding the test compound solution, substrate solution, ATP solution and kinase solution, each at 4× final concentrations. Reactions were prepared with assay buffer (50 mM MOPS, 1 mM DTT, pH7.2), mixed, and incubated in black 384 well polystyrene plates for 1 hour at room temperature. ADP-Glo™ reagent was then added for 40 minutes, followed by kinase detection reagent for an additional 40 minutes. The kinase activity was evaluated by detecting relative light units on a luminescence plate reader. Samples were run in duplicate from 10 μM to 3 nM. […] IC50 values were calculated from concentration vs % inhibition curves by fitting to a four-parameter logistic curve.

T1 sequence (Q9Y2I7 2-2098 S696N/L932S/Q995L/T998S/S1033A/Q1183K limits assumed): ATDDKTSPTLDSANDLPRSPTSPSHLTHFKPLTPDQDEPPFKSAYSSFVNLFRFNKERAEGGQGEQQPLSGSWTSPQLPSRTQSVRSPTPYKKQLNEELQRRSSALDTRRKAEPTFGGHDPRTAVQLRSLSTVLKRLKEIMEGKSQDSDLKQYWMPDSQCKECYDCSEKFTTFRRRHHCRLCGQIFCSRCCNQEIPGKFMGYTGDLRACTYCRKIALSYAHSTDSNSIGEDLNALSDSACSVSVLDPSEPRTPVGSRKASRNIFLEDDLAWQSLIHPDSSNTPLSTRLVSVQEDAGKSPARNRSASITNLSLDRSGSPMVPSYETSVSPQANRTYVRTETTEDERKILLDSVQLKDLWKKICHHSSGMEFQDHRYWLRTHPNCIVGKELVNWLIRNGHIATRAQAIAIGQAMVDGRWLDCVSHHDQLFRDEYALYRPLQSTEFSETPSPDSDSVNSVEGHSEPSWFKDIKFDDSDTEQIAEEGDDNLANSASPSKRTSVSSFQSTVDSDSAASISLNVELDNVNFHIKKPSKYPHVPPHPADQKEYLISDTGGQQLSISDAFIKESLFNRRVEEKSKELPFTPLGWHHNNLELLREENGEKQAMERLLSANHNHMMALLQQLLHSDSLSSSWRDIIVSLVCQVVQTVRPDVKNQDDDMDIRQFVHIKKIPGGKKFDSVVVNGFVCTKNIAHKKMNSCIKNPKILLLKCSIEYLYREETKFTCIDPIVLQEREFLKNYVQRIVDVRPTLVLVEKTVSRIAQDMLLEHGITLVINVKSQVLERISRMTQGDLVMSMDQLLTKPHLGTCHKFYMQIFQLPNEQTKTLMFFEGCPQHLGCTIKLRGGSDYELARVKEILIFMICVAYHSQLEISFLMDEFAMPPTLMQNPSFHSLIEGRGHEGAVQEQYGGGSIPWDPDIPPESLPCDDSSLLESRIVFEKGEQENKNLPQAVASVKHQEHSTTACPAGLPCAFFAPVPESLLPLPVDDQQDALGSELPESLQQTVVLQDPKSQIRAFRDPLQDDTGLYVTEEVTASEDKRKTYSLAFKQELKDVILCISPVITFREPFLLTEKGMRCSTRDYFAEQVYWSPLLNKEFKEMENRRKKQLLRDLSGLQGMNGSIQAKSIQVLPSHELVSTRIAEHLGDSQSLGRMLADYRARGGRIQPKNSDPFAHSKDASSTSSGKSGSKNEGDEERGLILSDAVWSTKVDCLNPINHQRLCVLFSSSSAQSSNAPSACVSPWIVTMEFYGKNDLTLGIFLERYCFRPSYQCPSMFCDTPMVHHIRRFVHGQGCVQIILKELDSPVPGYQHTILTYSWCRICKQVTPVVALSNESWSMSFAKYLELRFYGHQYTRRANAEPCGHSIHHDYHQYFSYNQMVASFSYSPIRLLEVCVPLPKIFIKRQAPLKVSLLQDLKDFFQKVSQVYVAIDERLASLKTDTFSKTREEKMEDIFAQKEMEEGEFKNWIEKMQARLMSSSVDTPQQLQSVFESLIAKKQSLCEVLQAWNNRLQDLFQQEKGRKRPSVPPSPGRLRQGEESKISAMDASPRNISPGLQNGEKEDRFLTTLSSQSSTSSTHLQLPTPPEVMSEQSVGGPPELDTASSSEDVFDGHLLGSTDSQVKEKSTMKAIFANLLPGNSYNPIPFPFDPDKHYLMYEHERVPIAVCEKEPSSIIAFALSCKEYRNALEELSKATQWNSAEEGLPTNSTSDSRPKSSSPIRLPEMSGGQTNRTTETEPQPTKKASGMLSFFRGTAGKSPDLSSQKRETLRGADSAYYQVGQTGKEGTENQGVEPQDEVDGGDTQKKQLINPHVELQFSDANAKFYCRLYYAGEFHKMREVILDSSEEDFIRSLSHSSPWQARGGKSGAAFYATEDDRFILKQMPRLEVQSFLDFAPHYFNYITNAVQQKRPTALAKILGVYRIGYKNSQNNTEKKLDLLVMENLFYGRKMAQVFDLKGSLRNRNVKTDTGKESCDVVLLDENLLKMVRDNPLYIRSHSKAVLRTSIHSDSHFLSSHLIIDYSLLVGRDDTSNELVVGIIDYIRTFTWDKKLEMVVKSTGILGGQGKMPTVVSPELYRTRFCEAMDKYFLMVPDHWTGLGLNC

Question: Which IC50 does the source give for `c1ccc(-c2c[nH]c3c(-c4ccncc4)nc(N4CCOCC4)nc23)cc1` [US20250145642, Compound 135] here?
Answer: Its IC50 is less than 10 nM.
